# Assay results as given in patent publication US20260182575A1, “MOLECULES HAVING PESTICIDAL UTILITY AND INTERMEDIATES AND PROCESSES RELATED THERETO” (CORTEVA AGRISCIENCE LLC, priority 2022, published 2026).
# “And” between values parts separate entries of the source, which are not always exact repeats. Equal values may be shown once.
# Tests used:
# Type in all cases: in vivo
# [1] = system: Corn Earworm (Helicoverpa zea, HELIZE, CEW); test: Bioassay 7: corn earworm, artificial diet, 96 well plate
# Description: (§1) The test solutions were tested against CEW, FAW, BAW, and SBL using the following procedure: an artificial lepidopteran diet (Multispecies Lepidopteran Diet, Southland Products) was distributed in 96 well plate. Twenty μL of test solution was pipetted onto a cell in the bioassay plate. […] Each treatment was replicated 5 times for each species. Approximately five first instar CEW, FAW, BAW, or SBL larva were placed on top of the diet in each cell and was contained with a clear perforated adhesive lid. Test trays were held at approximately 25° C. and ambient relative humidity prior to grading. After five days, the number of cells where all the larvae were dead were recorded as 100% and averaged across all replicates; then the percent control was measured using Abbott's correction formula (W. S. Abbott, J. Econ. Entomol. 18 (1925), pp. 265-267) as follows:
# (§2) where X=No. of live larvae on solvent check and Y=No. of live larvae on treated diet. In Table 7 the “Expected % Control” was calculated using the method described in Colby S. R., Weeds, 1967, 15, 20-22. Bioassay 8: Western Corn Rootworm (Diabrotica virgifera virgifera, DIABVI, “WCR”)
# [2] = system: Beet Armyworm (Spodoptera exigua, LAPHEG, BAW); test: Bioassay 7: beet armyworm, artificial diet, 96 well plate
# Description: as §1, §2
# [3] = system: Sweet Potato Whitefly (Bemisia tabaci, BEMITA, SPW); test: Bioassay 2: sweet potato whitefly, cotton seedling foliar spray; conditions: F1 alone
# [4] = system: Neotropical Brown Stink Bug (Euschistus heros, EUSCHE, BSB); test: Bioassay 5: neotropical brown stink bug, artificial agar diet
# Description: Stock solutions were prepared with F1 as well as for each of the active ingredients individually. Test solutions were prepared from the stock solutions. Test solutions were prepared containing F1, the individual active ingredients, and mixtures of F1 with each of the active ingredients. The test solution for F1 and the individual active ingredients were prepared by adding 30 μL of the stock solution to a single well of a 96 well plate, then adding 30 μL of DMSO, followed by the addition of 140 μL of a 2:1 mixture of acetone:water as a diluent to create a 0.03% (w/v) solution. […]
# The test solutions were tested against BSB using the following procedure: an artificial agar diet (2% agar, 12% sucrose) was distributed in 48 well plastic plates (Fisher Scientific™). […] The total number of living BSB nymphs was recorded four days after application. […] Percent control was measured using Abbott's correction formula (W. S. Abbott, J. Econ. Entomol. 18 (1925), pp. 265-267) as follows:
# where X=No. of live nymphs on solvent check and Y=No. of live nymphs on treated bean segments. In Table B5 the “Expected % Control” was calculated using the method described in Colby S. R., Weeds, 1967, 15, 20-22. […]
# [5] = system: Sweet Potato Whitefly (Bemisia tabaci, BEMITA, SPW); test: Bioassay 2: sweet potato whitefly, cotton seedling foliar spray; conditions: AI alone
# Description: Stock solutions were prepared with F1 as well as for each of the active ingredients individually. Test solutions were prepared from the stock solutions. Test solutions were prepared containing F1, the individual active ingredients, and mixtures of F1 with each of the active ingredients. The test solutions for F1 and the individual active ingredients were prepared by adding 500 μL of stock solution to a 25 mL glass vial, then adding 500 μL of acetone, followed by the addition of 9 mL water with 0.025% Tween® 20 to create a 0.001% (w/v) solution. The test solutions containing mixtures of F1, and the individual active ingredients were prepared by adding 500 μL of the active ingredient stock solution to a 25 mL glass vial, followed by 500 μL of the F1 stock solution, then by the addition of 9 mL water with 0.025% Tween® 20 to create a test solution containing 0.001% (w/v) F1 and 0.001% (w/v) of the active ingredient. Each test solution was serially diluted to create desired doses of test solutions (0.001% (w/v), 0.0001% (w/v), 0.00001% (w/v), 0.000001% (w/v), 0.0000001% (w/v), and 0.00000001% (w/v)).
# The test solutions were tested against SPW using the following procedure: Cotton seedlings grown in 3-inch pots, pruned so that only one true leaf remained, were used as test substrate. Adult B. tabaci were allowed to colonize the cotton plants and lay eggs for 24 hours after which all adults were removed from the plants using compressed air. Plants were monitored for egg development, and when crawler emergence was underway (>25% emergence based on visual examination using a microscope), the plants were sprayed using the test solutions and methods described above for green peach aphids (GPA). Treated plants were held in a holding room at approximately 25° C. and ambient relative humidity (RH) prior to grading. Evaluation was conducted by counting the number of developed 2-3 instar nymphs per plant under a microscope 7-9 days after treatment. Percent control was measured using Abbott's correction formula (W. S. Abbott, J. Econ. Entomol. 18 (1925), pp. 265-267) as follows:
# where X=No. of live nymphs on solvent check plants and Y=No. of live nymphs on treated plants. In Table B2 the “Expected % Control” was calculated using the method described in Colby S. R., Weeds, 1967, 15, 20-22. Bioassay 3: Western Flower Thrips (Frankliniella occidentalis, FRANOC, “WFT”).
structure (smiles),measurement,setting,value
Cc1ccc(COCC(F)(F)F)c(N2C(=O)CS/C2=N\C(=O)Nc2ccc(-c3ncn(-c4ccc(OC(F)(F)F)cc4)n3)cc2F)c1 [F1],Average % Control F1,[1]; F1 alone at 0.00002 wt %,0.0%
same,Average % Control F1,[1]; F1 alone at 0.00004 wt %,62.5% and 50.0%
same,Average % Control F1,[2]; F1 alone at 0.0000025 wt %,12.5%
same,Average % Control F1,[2]; F1 alone at 0.00001 wt %,40.0%
same,Average % Control F1,"[3]; F1 0.1, 7-9 days after treatment",0.0%
same,Average % Control F1,"[3]; F1 10, 7-9 days after treatment",37.4% and 50.1%
same,Average % Control F1,"[4]; F1 alone, Wt % F1 0.0045, EUSCHE nymphs, agar diet, four days after application",7.1%
Cc1c(COC(=O)[C@@H]2[C@H](/C=C(\Cl)C(F)(F)F)C2(C)C)cccc1-c1ccccc1 (racemic) [Bifenthrin],Average % Control AI,"[4]; AI alone, Wt % AI 0.0045, EUSCHE, four days",60.0%
CN1COCN(Cc2cnc(Cl)s2)/C1=N\[N+](=O)[O-] [Thiamethoxam],Average % Control AI,"[5]; Wt % AI 0.000001, 7-9 days",5.8%
same,Average % Control AI,"[5]; Wt % AI 0.00001, 7-9 days",35.9%
C[C@]1(COC(=O)C2CC2)[C@@H]2C[C@H](O)[C@@]3(C)Oc4cc(-c5cccnc5)oc(=O)c4[C@H](O)[C@@H]3[C@@]2(C)CC[C@@H]1OC(=O)C1CC1 [Afidopyropen],Average % Control AI,"[5]; Wt % AI 0.00001, 7-9 days",0.0%
